Measurements published in PubChem BioAssay (NCI).
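Protocol summary: plate cells (96-well), add compound at 5 concentrations, incubate 48 h, interpolate endpoints linearly. At the GI50, growth is halved. TGI denotes the concentration required for complete inhibition of growth.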

What was measured:
Assay in all cases: DTP human tumour cell line panel, 48 h
[1] = system: A549 NSCLC
[2] = system: SNB-78 CNS
[3] = system: M14 melanoma
[4] = system: MOLT-4 leukemia
[5] = system: CAKI-1 renal
[6] = system: NCI-H522 lung
[7] = system: HOP-18 NSCLC
[8] = system: NCI-H460 lung
[9] = system: SW-620 colon
[10] = system: DLD-1 colon
[11] = system: SR leukemia
[12] = system: SF-295 CNS
[13] = system: NCI-H226 lung
[14] = system: EKVX NSCLC
[15] = system: RPMI-8226 leukemia
[16] = system: 786-0 renal
[17] = system: SN12C renal
[18] = system: DMS 273 small cell lung
[19] = system: KM12 colon
[20] = system: KM20L2 colon
[21] = system: ACHN renal
[22] = system: SF-268 CNS
[23] = system: COLO 205 colon
[24] = system: M19-MEL melanoma
[25] = system: HL-60(TB) leukemia
[26] = system: UACC-62 melanoma
[27] = system: IGROV1 ovarian
[28] = system: MALME-3M melanoma
[29] = system: HCT-15 colon
[30] = system: UACC-257 melanoma
[31] = system: SK-MEL-5 melanoma
[32] = system: OVCAR-8 ovarian
[33] = system: NCI-H23 lung
[34] = system: K-562 leukemia
[35] = system: HCC-2998 colon
[36] = system: DMS 114 small cell lung
[37] = system: SK-OV-3 ovarian
[38] = system: SK-MEL-28 melanoma
[39] = system: OVCAR-5 ovarian
[40] = system: OVCAR-3 ovarian
[41] = system: LXFL 529 NSCLC
[42] = system: SK-MEL-2 melanoma
[43] = system: HOP-62 NSCLC
[44] = system: UO-31 renal
[45] = system: CCRF-CEM leukemia
[46] = system: SF-539 CNS
[47] = system: HCT-116 colon
[48] = system: LOX IMVI melanoma
[49] = system: SNB-75 CNS
[50] = system: SNB-19 CNS
[51] = system: OVCAR-4 ovarian
[52] = system: TK-10 renal
[53] = system: HOP-92 NSCLC
[54] = system: HT29 colon
[55] = system: U251 CNS
[56] = system: RXF 393 renal
[57] = system: A498 renal
[58] = system: XF 498 CNS

Structure (SMILES): COc1ccc(-c2cn3ccsc3n2)cc1
- TGI [1]: > 100 µM
- TGI [2]: > 100 µM
- TGI [3]: > 100 µM
- TGI [4]: > 100 µM
- TGI [5]: > 100 µM
- TGI [6]: > 100 µM
- TGI [7]: > 100 µM
- TGI [8]: > 100 µM
- TGI [9]: 34.9 µM
- TGI [10]: > 100 µM
- TGI [11]: 75.6 µM
- TGI [12]: > 100 µM
- TGI [13]: > 100 µM
- TGI [14]: > 100 µM
- TGI [15]: 54.6 µM
- TGI [16]: > 100 µM
- TGI [17]: > 100 µM
- TGI [18]: > 100 µM
- TGI [19]: > 100 µM
- TGI [20]: > 100 µM
- TGI [21]: > 100 µM
- TGI [22]: > 100 µM
- TGI [23]: > 100 µM
- TGI [24]: > 100 µM
- TGI [25]: 85.7 µM
- TGI [26]: > 100 µM
- TGI [27]: > 100 µM
- TGI [28]: > 100 µM
- TGI [29]: > 100 µM
- TGI [30]: > 100 µM
- TGI [31]: > 100 µM
- TGI [32]: > 100 µM
- TGI [33]: > 100 µM
- TGI [34]: > 100 µM
- TGI [35]: > 100 µM
- TGI [36]: > 100 µM
- TGI [37]: > 100 µM
- TGI [38]: > 100 µM
- TGI [39]: > 100 µM
- TGI [40]: > 100 µM
- TGI [41]: > 100 µM
- TGI [42]: > 100 µM
- TGI [43]: > 100 µM
- TGI [44]: > 100 µM
- TGI [45]: > 100 µM
- TGI [46]: > 100 µM
- TGI [47]: > 100 µM
- TGI [48]: > 100 µM
- TGI [49]: > 100 µM
- TGI [50]: > 100 µM
- TGI [51]: > 100 µM
- TGI [52]: > 100 µM
- TGI [53]: > 100 µM
- TGI [54]: > 100 µM
- TGI [55]: > 100 µM

Structure (SMILES): CC[O-].CC[O-].O=C1c2ccccc2C(=O)c2c(O)ccc([O-])c21.O=C1c2ccccc2C(=O)c2c(O)ccc([O-])c21.[Ti+4]
- TGI [1]: > 100 µM
- TGI [2]: > 100 µM
- TGI [3]: > 100 µM
- TGI [4]: > 100 µM
- TGI [5]: > 100 µM
- TGI [6]: > 100 µM
- GI50 [7]: 74.4 µM
- TGI [7]: > 100 µM
- TGI [8]: > 100 µM
- TGI [9]: > 100 µM
- TGI [10]: > 100 µM
- TGI [12]: > 100 µM
- GI50 [13]: > 100 µM
- TGI [13]: > 100 µM
- TGI [14]: > 100 µM
- TGI [15]: > 100 µM
- TGI [16]: > 100 µM
- TGI [56]: 90.4 µM
- TGI [17]: > 100 µM
- TGI [18]: > 100 µM
- TGI [19]: > 100 µM
- GI50 [20]: > 100 µM
- TGI [20]: > 100 µM
- TGI [21]: > 100 µM
- TGI [22]: > 100 µM
- TGI [23]: > 100 µM
- TGI [24]: 73.4 µM
- TGI [25]: > 100 µM
- TGI [26]: > 100 µM
- TGI [27]: > 100 µM
- TGI [28]: > 100 µM
- TGI [29]: > 100 µM
- TGI [30]: > 100 µM
- TGI [31]: > 100 µM
- TGI [32]: > 100 µM
- TGI [33]: > 100 µM
- TGI [34]: > 100 µM
- TGI [36]: > 100 µM
- TGI [37]: > 100 µM
- TGI [38]: > 100 µM
- TGI [39]: > 100 µM
- TGI [40]: > 100 µM
- TGI [41]: > 100 µM
- TGI [42]: > 100 µM
- TGI [43]: > 100 µM
- TGI [44]: > 100 µM
- TGI [45]: > 100 µM
- TGI [46]: > 100 µM
- TGI [47]: > 100 µM
- TGI [48]: > 100 µM
- TGI [49]: > 100 µM
- TGI [57]: > 100 µM
- TGI [50]: > 100 µM
- TGI [51]: > 100 µM
- TGI [52]: > 100 µM
- TGI [54]: > 100 µM

Structure (SMILES): CN(C)CC/C(=N\Nc1c(Cl)cccc1Cl)c1ccccc1
- TGI [1]: > 100 µM
- TGI [2]: 62.1 µM
- TGI [3]: 34.2 µM
- TGI [4]: 71.7 µM
- TGI [6]: 33.9 µM
- TGI [7]: 51.1 µM
- TGI [8]: 29.9 µM
- TGI [9]: 36.8 µM
- TGI [10]: > 100 µM
- TGI [11]: 63.4 µM
- TGI [12]: 35.9 µM
- TGI [14]: 94.7 µM
- TGI [15]: 46.8 µM
- TGI [16]: 31.3 µM
- TGI [56]: 28.5 µM
- TGI [17]: 92.7 µM
- TGI [18]: 31.8 µM
- TGI [19]: 34.8 µM
- TGI [20]: 33.1 µM
- TGI [21]: 50.5 µM
- TGI [23]: 29.4 µM
- TGI [24]: 33.6 µM
- TGI [25]: 39.4 µM
- TGI [26]: 29.9 µM
- TGI [27]: 92.4 µM
- TGI [28]: 43.6 µM
- TGI [29]: 35.6 µM
- TGI [30]: 32.7 µM
- TGI [31]: 29.5 µM
- TGI [32]: 37.6 µM
- TGI [33]: 33.4 µM
- TGI [34]: 52.3 µM
- TGI [36]: 34 µM
- TGI [37]: 52 µM
- TGI [38]: 39.7 µM
- TGI [39]: 35.7 µM
- TGI [40]: 65.9 µM
- TGI [41]: 29.5 µM
- TGI [42]: 34.1 µM
- TGI [43]: > 100 µM
- TGI [44]: 22.5 µM
- TGI [45]: 79.3 µM
- TGI [46]: 34.2 µM
- TGI [47]: 29.1 µM
- TGI [48]: 31 µM
- TGI [49]: 55.6 µM
- TGI [57]: 34.8 µM
- TGI [50]: > 100 µM
- TGI [51]: 47.4 µM
- TGI [52]: 30.9 µM
- TGI [54]: 29.3 µM
- TGI [55]: 31.3 µM

Structure (SMILES): CCOC(=O)C(Cc1ccc2ccccc2c1)(Cc1ccc2ccccc2c1)C(C)=O
- TGI [1]: > 10 µM
- TGI [2]: > 10 µM
- TGI [3]: > 10 µM
- TGI [58]: > 10 µM
- TGI [4]: 8.61 µM
- TGI [8]: > 10 µM
- TGI [9]: > 10 µM
- TGI [10]: > 10 µM
- TGI [15]: 6.58 µM
- TGI [16]: > 10 µM
- TGI [17]: > 10 µM
- TGI [18]: > 10 µM
- TGI [20]: > 10 µM
- TGI [21]: > 10 µM
- TGI [23]: > 10 µM
- TGI [24]: > 10 µM
- TGI [26]: > 10 µM
- TGI [27]: > 10 µM
- TGI [28]: > 10 µM
- TGI [29]: > 10 µM
- TGI [34]: > 10 µM
- TGI [35]: 8.51 µM
- TGI [37]: > 10 µM
- TGI [41]: > 10 µM
- TGI [43]: > 10 µM
- TGI [45]: > 10 µM
- TGI [48]: > 10 µM
- TGI [51]: > 10 µM
- TGI [53]: > 10 µM
- TGI [55]: > 10 µM
